{"source": "patent US20220040252A1", "about": "“TREATMENT OF PROSTATE CANCER BY ANDROGEN ABLATION AND IL-8 BLOCKADE” (The Trustees of Columbia University in the City of New York, priority 2019, published 2022)", "key": {"IL-8 [1]": {"system": "IL-8", "assay": "qRT-PCR quantification of IL-8 in LNCaP cells", "type": "cell-based, human", "details": "LNCaP cells in androgen-free media, FIG. 1f", "protocol": "Myc-Cap, derived from spontaneous prostate cancer in c-Myc transgenic mice, was a generous gift from Dr. C. Sawyers. To generate MCRedAL, Myc-Cap cells were transfected with pRetroQ-mCherry-C1 (Clontech) using lipofectamine 2000 (Invitrogen) and isolated by FACS sorting based on mCherry expression (Extended Data FIG. 1a). Myc-Cap and MCRedAL cells were cultured in DMEM as previously described. LNCaP, VCaP, E006AA, CWR22Rv1, DU145, and PC3 cell lines were obtained and cultured as recommended by the ATCC. LAPC4 (a gift from Dr. S. Yegnasubramanian) were maintained in RPMI-1640 (Corning) supplemented with 10% fetal bovine serum (FBS; Gemini Bio-Products). Androgen independent LNCaP-abl cells were a gift from Dr. Z. Culig and cultured as described previously^29. LAPC4-CR and VCaP-CR (a gift from S. Yegnasubramanian) were derived by passaging LAPC4 and VCaP cells through castrated animals and further subculturing in RPMI-1640 supplemented with 10% charcoal stripped serum (CSS; Gemini Bio-Products) supplemented with 1×B-27 Neuronal Supplement (Gibco). For experiments when cells were grown in androgen-free conditions, 10% FBS was substituted for 10% CSS in complete media. For migration/chemotaxis assays, prostate cancer cell lines were cultured in complete media containing either 0.5% or 2.5% FBS for human and murine cells, respectively. […]"}, "IL-8 (CXCL8) promoter [2]": {"system": "IL-8 (CXCL8) promoter", "details": "LNCaP cells, DHT 100 nM", "quoted_text": "Chromatin immunoprecipitation was performed. In brief, LNCaP cells were washed with serum-free media and then grown in media containing 10% charcoal stripped FBS for 48 hours. Cells were treated with 100 nM DHT or vehicle for 8 hours. DNA was cross-linked with 1% formaldehyde in PBS for 10 minutes and crosslinking was quenched by addition of 0.125 M glycine. Fixed cells were then lysed in lysis buffer (1% SDS, 5 mM EDTA, 50 mM Tris HCl, pH8.1) and sonicated to a fragment size of 200-600 bp using a Covaris water bath sonicator (Woburn, Mass.). Sheared chromatin was then incubated with primary antibodies (AR [06-680, Millipore], H3K4me3 [ab8580, Abcam], phospho-SerS RNA polymerase 2 [ab5131, Abcam], RNA polymerase 2 [4H8, Cell Signaling Technologies] or control IgG [Cell Signaling Technologies]) overnight at 4° C. Complexes were immobilized on Dynabeads (Thermo Fisher) by incubating for 4 hours at 4° C. Beads were sequentially washed with TSEI (0.1% SDS, 1% Triton X-100, 2 mM EDTA, 20 mM Tris HCl, pH 8.1, 150 mM NaCl), TSEII (0.1% SDS, 1% Triton X-100, 2 mM EDTA, 20 mM Tris HCl, pH 8.1, 500 mM NaCl) and TSEIII (0.25 M LiCl, 1% NP-40, 1% deoxycholate, 1 mM EDTA, 10 mM Tris HCl, pH 8.1). […] Enriched DNA libraries were analyzed using primers specific to IL-8 locus: Forward: 5′ [sequence] […] 3′ (SEQ ID NO: 2) using quantitative (q) RT-PCR. […]"}, "PSA (KLK3) promoter": {"system": "PSA (KLK3) promoter", "details": "LNCaP cells, DHT 100 nM, FIG. 1h right", "quoted_text": "Chromatin immunoprecipitation was performed. In brief, LNCaP cells were washed with serum-free media and then grown in media containing 10% charcoal stripped FBS for 48 hours. Cells were treated with 100 nM DHT or vehicle for 8 hours. […] Fixed cells were then lysed in lysis buffer (1% SDS, 5 mM EDTA, 50 mM Tris HCl, pH8.1) and sonicated to a fragment size of 200-600 bp using a Covaris water bath sonicator (Woburn, Mass.). Sheared chromatin was then incubated with primary antibodies (AR [06-680, Millipore], H3K4me3 [ab8580, Abcam], phospho-SerS RNA polymerase 2 [ab5131, Abcam], RNA polymerase 2 [4H8, Cell Signaling Technologies] or control IgG [Cell Signaling Technologies]) overnight at 4° C. Complexes were immobilized on Dynabeads (Thermo Fisher) by incubating for 4 hours at 4° C. Beads were sequentially washed with TSEI (0.1% SDS, 1% Triton X-100, 2 mM EDTA, 20 mM Tris HCl, pH 8.1, 150 mM NaCl), TSEII (0.1% SDS, 1% Triton X-100, 2 mM EDTA, 20 mM Tris HCl, pH 8.1, 500 mM NaCl) and TSEIII (0.25 M LiCl, 1% NP-40, 1% deoxycholate, 1 mM EDTA, 10 mM Tris HCl, pH 8.1). DNA was eluted with IP Elution buffer (1% SDS, 0.1M NaHCO3, proteinase K) and incubated at 56° C. for 15 minutes. […] Data is shown as relative enrichment normalized to input DNA."}, "IL-8 (CXCL8) promoter [3]": {"system": "IL-8 (CXCL8) promoter", "details": "LNCaP cells, cited from earlier work"}, "IL-8 [4]": {"system": "IL-8", "details": "men undergoing ADT with testosterone supplementation vs ADT, FIG. 2h; cited from earlier work"}, "Cxcl15 [5]": {"system": "Cxcl15", "assay": "Cxcl15 expression in benign prostate epithelium of mice (RISH, qRT-PCR)", "type": "in vivo, mouse", "details": "WT mice treated with ADT followed by testosterone repletion, FIG. 2g", "text": "Eight-week-old male HOXB13-GFP mice carrying the Hoxb13-rtTA transgene and a Tetracycline operator—Histone 2B-Green Fluorescent Protein (TetO-H2BGFP), which results on GFP expression being restricted to luminal epithelial Hoxb13^+ cells (described previously), were castrated via bilateral orchiectomy. A cycle of prostate regression/regeneration was induced as described previously. Briefly, mice were allowed to regress for six weeks to reach the fully involuted state. Mice were randomized to ADT or ADT+testosterone (T) treatment groups. Testosterone was administered for four weeks for prostate regeneration by subcutaneous pellets; this regimen yields physiological levels of serum testosterone. All mice received 2 mg/ml of Doxycycline (Sigma) in the drinking water to induce GFP expression under the control of the luminal epithelial promoter, HoxB13, one week prior euthanizing them for their analysis.\nManual fluorescent RNAScope was performed on formalin-fixed and zinc-fixed paraffin embedded sections using company protocols. Briefly, sections were cut at 5 μm, air dried overnight, baked at 60° C. for 1 hrs, dewaxed and air-dried before pre-treatments. RNAScope Cxcl15, 3-plex positive control probes (Polr2a, Ppib, Ubc) and 3-plex negative control probes (DapB of Bacillus subtilis strain) from Advanced Cell Diagnostics (ACD) were used in this study. […]"}, "Cxcl15 [6]": {"system": "Cxcl15", "assay": "Expression analysis of sorted MCRedAL tumor cells pre- and post-ADT", "type": "in vivo, mouse", "protocol": "Eight-week-old male FVB/NJ and J:NU mice were subcutaneously inoculated in the right flank with either Myc-Cap or MCRedAL (1×10^6 cells/mouse), and LNCaP or PC3 (3×10^6 cells/mouse), respectively. Tumor diameters were measured with electronic calipers every 3 days as indicated and the tumor volume was calculated using the formula: [longest diameter×(shortest diameter)^2]/2. Myc-Cap tumor bearing mice received androgen-deprivation therapy (ADT) 4 weeks after tumor implantation when tumor volume reached ˜500 mm^3, as indicated in figure legends. […]\nTumors collected at different treatment time points were minced, lysed in CelLytic MT (Sigma) containing halt protease and phosphatase inhibitor (Thermo Fisher) in a 1:100 ratio, and incubated on ice for 30 minutes with intermittent vortexing. […] IL-8 and Cxcl15 were analyzed by ELISA kits following the manufacturer's instructions (BD Bioscience and R&D Systems, respectively).\nMCRedAL tumor were harvested when their tumor volume reached ˜500 mm^3 (CS group), and 7 days after chemical castration (ADT). […] Resulting CEL files were analyzed in Affymetrix Expression Console (v. 1.4) using the SST-RMA method, and all samples passed the quality control. Log2 probe intensities were extracted from CEL (signal intensity) files and normalized using RMA quantile normalization, then further analyzed using Partek Genomics Suite v6.6. […]"}, "IL-8 [7]": {"system": "IL-8", "details": "high-risk PCa patients treated with ADT (degarelix 240 mg SQ) vs untreated controls, FIG. 2i", "quoted_text": "Formalin fixed, paraffin embedded (FFPE) human prostate cancer samples were obtained from consented patients treated with ADT (degarelix; 240 mg SQ) in a neo-adjuvant trial (NCT01696877) and matched control radical prostatectomies were obtained from patients treated at the Johns Hopkins Sidney Kimmel Comprehensive Cancer Center (Baltimore, Md.) under IRB-approved clinical protocol J1265. All patients provided written, informed consent. Total RNA was extracted using Trizol (Ambion). cDNA was prepared from total RNA preps using the RNA to cDNA EcoDry Premix (Clontech). Real-time assays were conducted using TaqMan real-time probes (Applied Biosystems). AA CT method was used for relative gene expression. Expression of the target gene was normalized to the reference gene (18S) and the mean expression level of the control group. LCM samples were normalized to 18S, TBP, and GAPDH reference genes. […] Sections were deparaffinized, hydrated and stained with hematoxylin prior to microdissection. Individual cancer cells and cancer cell clusters were microdissected by a trained pathologist using a LMD 7000 laser capture microscope (Leica). RNA was recovered from the microdisseceted material using the RNeasy FFPE kit (Qiagen). Quantitative RT-PCR was performed as described above. For the analysis, a Mann-Whitney U test was performed."}, "Myc-Cap tumors": {"system": "Myc-Cap tumors", "assay": "Immune infiltration (PMN-MDSC, TIL, TAM) of Myc-Cap tumors by flow cytometry", "type": "in vivo, mouse", "details": "Myc-Cap allografts after ADT, FIG. 3b", "quoted_text": "Eight-week-old male FVB/NJ and J:NU mice were subcutaneously inoculated in the right flank with either Myc-Cap or MCRedAL (1×10^6 cells/mouse), and LNCaP or PC3 (3×10^6 cells/mouse), respectively. Tumor diameters were measured with electronic calipers every 3 days as indicated and the tumor volume was calculated using the formula: [longest diameter×(shortest diameter)^2]/2. Myc-Cap tumor bearing mice received androgen-deprivation therapy (ADT) 4 weeks after tumor implantation when tumor volume reached ˜500 mm^3, as indicated in figure legends. […] Onset of castration-resistance was defined as the time to tumor size increased by 30% (˜650 mm^3) after ADT. Chemical castration by ADT was compared to bilateral orchiectomy as described in FIG. 1a. […]\nSingle-cell suspensions from prostate tumor and tissues were prepared using the Mouse Tumor Dissociation Kit according to the manufacturer's recommendations (Miltenyi). […] Gates of cytokines were determined by fluorescence minus one (FMO) controls. Staining was visualized by fluorescenceactivated cell sorting (FACS) analysis using a BD FACSCelesta™ (BD Biosciences) and analyzed using FlowJo® (Flowjo LLC). […]"}}, "note": "Like-named read-outs stand apart in the source and are kept apart here."}
{"compound": "C[C@]12CCC(=O)C[C@@H]1CC[C@@H]1[C@@H]2CC[C@]2(C)[C@@H](O)CC[C@@H]12", "note": "[DHT, dihydrotestosterone]", "values": [{"measurement": "IL-8 expression (qRT-PCR)", "setting": "IL-8 [1]", "value": "did not affect IL-8 expression"}, {"measurement": "androgen dependent AR binding at the IL-8 promoter (ChIP-qRT-PCR)", "setting": "IL-8 (CXCL8) promoter [2]; FIG. 1h", "value": "verified by ChIP-qRT-PCR"}, {"measurement": "binding of pol II, pSer2 pol II and H3K4me3 to the IL-8 locus", "setting": "IL-8 (CXCL8) promoter [2]; FIG. 1h left", "value": "substantially reduced"}, {"measurement": "pSer2 pol II binding to the promoter of PSA (KLK3)", "setting": "PSA (KLK3) promoter", "value": "significantly increased"}, {"measurement": "AR binding at the IL-8 promoter (in silico ChIP-Seq analysis, GSE83860)", "setting": "IL-8 (CXCL8) promoter [3]; DHT 100 nM, FIG. 1g top", "value": "found AR binding at the IL-8 promoter"}]}
{"compound": "C[C@]12CC[C@H]3[C@@H](CCC4=CC(=O)CC[C@@]43C)[C@@H]1CC[C@@H]2O", "note": "[testosterone]", "values": [{"measurement": "IL-8 mRNA expression", "setting": "IL-8 [4]", "value": "significantly reduced IL-8 mRNA expression"}, {"measurement": "epithelial Cxcl15 expression", "setting": "Cxcl15 [5]", "value": "expression significantly decreased by testosterone repletion"}]}
{"compound": "TNFα", "values": [{"measurement": "IL-8 expression (qRT-PCR)", "setting": "IL-8 [1]", "value": "upregulated IL-8 expression in a dose-dependent manner"}, {"measurement": "p65 binding at the IL-8 (CXCL8) promoter (ChIP-Seq, GSE83860)", "setting": "IL-8 (CXCL8) promoter [3]; TNFα 1000 U/ml, FIG. 1g bottom", "value": "significantly increased p65 binding"}]}
{"compound": "degarelix acetate [ADT]", "values": [{"measurement": "Cxcl15 transcript (microarray)", "setting": "Cxcl15 [6]; MCRedAL tumor cells, 7 days after chemical castration vs castration-sensitive, FIG. 1d", "value": "significantly up-regulated post-ADT"}, {"measurement": "Cxcl15 (qRT-PCR and ELISA)", "setting": "Cxcl15 [6]; post-ADT, data not shown", "value": "confirmed the upregulation of Cxcl15 post-ADT at the protein level"}, {"measurement": "IL-8 expression (qRT-PCR)", "setting": "IL-8 [7]", "value": "increased IL-8 expression"}, {"measurement": "T cell influx into tumor", "setting": "Myc-Cap tumors", "value": "promoted a transient T cell influx"}, {"measurement": "tumor associated macrophage (TAM) populations", "setting": "Myc-Cap tumors", "value": "without significant changes in tumor associated macrophage (TAM) populations"}]}
